Assay results taken from ChEMBL document CHEMBL1155899, “Cucurbitane-type triterpenoids from the stems of momordica charantia” (J Nat Prod, 2008).

Tested on: SK-HEP1
Experiment: Cytotoxicity against human SK-Hep1 cells by MTT assay
Type: functional, cell-based

SMILES | IC50 [µM]
CO[C@H]1C=C2[C@@H](CC[C@H](O)C2(C)C)[C@]2(C)CC[C@]3(C)[C@@H]([C@H](C)C/C=C/C(C)(C)O)CC[C@@]3(C)[C@H]12 | > 100
C[C@H](C/C=C/C(C)(C)O)[C@H]1CC[C@@]2(C)[C@@H]3[C@@H](O)C=C4[C@@H](CC[C@H](O)C4(C)C)[C@]3(C)CC[C@]12C | > 100
CO[C@H]1C=C2[C@@H](CC[C@H](OC(C)=O)C2(C)C)[C@]2(C)CC[C@]3(C)[C@@H]([C@H](C)C/C=C/C(C)(C)O)CC[C@@]3(C)[C@H]12 | > 100
C[C@H](C/C=C/C(C)(C)O)[C@H]1CC[C@@]2(C)[C@@H]3C=CC4=C(CC[C@H](O)C4(C)C)[C@]3(C)CC[C@]12C | > 100
C[C@H](C/C=C/C(C)(C)O)[C@H]1CC[C@@]2(C)[C@@H]3[C@@H](O)C=C4[C@@H](CC[C@H](O)C4(C)C)[C@]3(C=O)CC[C@]12C | 98.3
COC(C)(C)/C=C/C[C@@H](C)[C@H]1CC[C@@]2(C)[C@@H]3[C@@H](O)C=C4[C@@H](CC[C@H](O)C4(C)C)[C@]3(C=O)CC[C@]12C | 91.6
CO[C@H]1C=C2[C@@H](CC[C@H](O)C2(C)C)[C@]2(C)CC[C@]3(C)[C@@H]([C@H](C)C/C=C/C(C)(C)OC)CC[C@@]3(C)[C@H]12 | > 100
CC(C)=CC(=O)C[C@@H](C)[C@H]1CC[C@@]2(C)[C@@H]3C(=O)C=C4[C@@H](CCC(=O)C4(C)C)[C@]3(C)CC[C@]12C | > 100
COc1cc([C@@H]2c3cc4c(cc3[C@@H](O[C@@H]3O[C@@H]5CO[C@@H](C)O[C@H]5[C@H](O)[C@H]3O)[C@H]3COC(=O)[C@H]23)OCO4)cc(OC)c1O [ETOPOSIDE] | 49.6
